Compared with `N=C1NC(=O)C(Cc2ccc(OCCN3CCOCC3)cc2)S1` (centres undefined), `Cc1ccc(CNC(=O)c2nc(N3CCOCC3)n(C)c(=O)c2O)cc1F` is lower in melting point: 189 to 190 °C for the first, 166 to 167 °C for the second.

`CCOCn1cc(F)c(=O)n(C(=O)c2cccc(C(=O)Oc3nc(OC(=O)c4ccc(Cl)cc4Cl)ccc3C#N)c2)c1=O` and `Cn1c(-c2cccc(C(F)(F)F)c2)cc(=O)n(-c2ccc(Cl)cc2F)c1=O` cannot be ordered by melting point: 140 to 142 °C for the first, 139 to 142 °C for the second.

Compared with `Cc1c(S(N)(=O)=O)c(-c2nnc(S)o2)nn1C`, `CCCCN1C(=O)c2c(c(C)nn2C)Nc2ncccc21` is lower in melting point: 243 to 245 °C for the first, 144 to 146 °C for the second.

Compared with `COc1cccc(Nc2ncc3cc(-c4c(Cl)cccc4Cl)c(=O)n(C)c3n2)c1`, `COc1cccc(CCOc2cccc(-c3cccc(C(=O)O)c3)n2)c1` is lower in melting point: 203 to 204 °C for the first, 156 to 157 °C for the second.

Compared with `Cc1nc2c(O)cc(C(=O)N(C)C)cc2n1C`, `Cc1c(O)cc(O)c(C)c1C(=O)OCC(Cl)(Cl)Cl` is lower in melting point: 248 °C for the first, 132 to 133 °C for the second.

First: Cc1c(C(F)(F)F)nn(C)c1O
Second: O=C(O)Cn1c(-c2ccc(C(F)(F)F)cc2)nc2cccnc21
The melting point of the first is lower: 148 to 151 °C for the first, 240 to 241 °C for the second.

Compared with `O=C(OCCCCc1ccc2[nH]c(=O)oc2c1)C(F)(F)F`, `CCCCCCOc1cc(-n2c(=O)cc(C(F)(F)F)n(C)c2=O)c(F)cc1Cl` is lower in melting point: 100 to 103 °C for the first, 60 to 63 °C for the second.

Compared with `CN(Cc1ccccc1)Cc1c(-c2ccccc2)sc(N)c1C(=O)c1ccc(Cl)cc1`, `CN(CCc1ccccc1)C(=O)Cc1ccc(OCc2ccccc2)c(/C=C/C(=O)O)c1` is lower in melting point: 86 to 88 °C for the first, 48 to 51 °C for the second.

First: CC(=NO)c1ccc(N2CCN(C(=O)CCCCCCC(=O)NO)CC2)cc1
Second: CC(=O)NC(C)c1ccc(CN2CCN(c3cccc(F)n3)CC2)cc1 (centres undefined)
The melting point of the first is higher: 147 to 148 °C for the first, 109 to 111 °C for the second.

Compared with `N#Cc1ccc(OCc2ccncc2)cc1F`, `CCOc1ccc2[nH]cc(/C(C#N)=C/c3cccnc3)c2c1` is higher in melting point: 132 to 133 °C for the first, 196 °C for the second.

First: C(=Nc1cccc2ccccc12)=Nc1cccc2ccccc12
Second: Cc1ccc(S(=O)(=O)NC(=O)N2C(=O)CN2C(c2ccccc2)c2ccccc2)cc1
The melting point of the first is lower: 91 °C for the first, 115 to 123 °C for the second.

Compared with `CC(C)C(=O)Oc1c(-c2ccc(-c3ccccc3)cc2)nc2ccc(F)cc2c1C(=O)O`, `CNc1nc(N)nc(-c2ccc(-c3ccccc3)cc2)n1` is higher in melting point: 201 to 204 °C for the first, 237 to 238 °C for the second.

Compared with `CCCOc1ccc(S(C)(=O)=O)cc1C(=O)O`, `O=C(O)CCCOc1cccc2occc12` is lower in melting point: 148 to 152 °C for the first, 91 to 93 °C for the second.

First: Cc1ccccc1NCN1C(=O)CSC1=O
Second: CNc1ccccc1C(=O)Cc1nnn[nH]1
The melting point of the first is lower: 109 to 111 °C for the first, 199 to 201 °C for the second.

First: c1ccc(Nc2nnn[nH]2)cc1
Second: O=[N+]([O-])c1cc[nH]c1-c1ccccc1
The melting point of the first is higher: 208 to 209 °C for the first, 190 to 192 °C for the second.

First: CN(C)c1c(Cl)cc(C(O)CNC(C)(C)C)cc1Cl (centres undefined)
Second: Cc1c(Cl)cc(NC(=O)CCl)c(O)c1Cl
The melting point of the first is lower: 96 to 99 °C for the first, 149 °C for the second.

First: OC1(CC2CO2)c2ccccc2CCc2ccccc21 (centres undefined)
Second: NC(=O)Cc1ccc2c(c1)CCc1cccnc1O2
The melting point of the first is lower: 116 to 118 °C for the first, 164 to 165 °C for the second.

`C[C@@H]1CC(=O)O[C@H](CCc2ccccc2)O1` and `CC(C)(Cc1ccccc1)C(=O)C(Cc1ccccc1)n1cncn1` (centres undefined) cannot be ordered by melting point: 49.7 to 50.9 °C for the first, 45 to 50 °C for the second.

Compared with `O=Cc1cc(-c2ccc(Cl)cc2Cl)ccc1OC(F)(F)F`, `Nc1c(C(=O)c2cccc(C(F)(F)F)c2)[nH]c2cc(Cl)ccc12` is higher in melting point: 62 to 63 °C for the first, 84 to 87 °C for the second.

Compared with `Cc1nc(N)c2ncn(Cc3cc(-c4ccc(F)cc4)no3)c2c1C`, `CC(C)(O)Cn1c(CO)nc2c(N)nc3cc(-c4ccc(Cl)c(Cl)c4)cnc3c21` is higher in melting point: 244 to 246 °C for the first, 254 to 256 °C for the second.

First: CN1CCN(c2cc(Cl)cc3c2c(=O)n(Cc2ccccc2F)c(=O)n3Cc2ccccc2)CC1
Second: CN1CCN(c2cccc(-c3cnn4c(N)c(Cc5ccccc5)cnc34)c2)CC1
The melting point of the first is higher: 147 to 149 °C for the first, 72 to 75 °C for the second.

Compared with `O=C(O)c1cn(C2COC2)c2c(Cl)c(F)c(F)cc2c1=O`, `Cc1c(N2CCC(N)C2)c(F)cc2c(=O)c(C(=O)O)cn(C3CC3)c12` (centres undefined) is lower in melting point: greater than 300 °C for the first, 187 to 190 °C for the second.

First: COCC1=C(C(=O)OC)C(c2ccccc2Cl)C(C(=O)OC)=C(COC)N1
Second: COCOc1c(NC(=O)N(CCCCCC(=O)O)c2ccccc2)cc(OC)cc1C(C)(C)C
The melting point of the first is higher: 137 to 138 °C for the first, 109 to 111 °C for the second.

First: O=C(NCC(O)C(=O)O)c1cc2cc(Cl)ccc2[nH]1 (racemic)
Second: O=C(O)CNC(=O)Cc1ccc(Cl)cc1S
The melting point of the first is higher: 214 to 215 °C for the first, 148 to 149 °C for the second.

Compared with `CCN(CC)CCNC(=O)N1CCC(S(=O)c2ccc(Cl)cc2)C1` (centres undefined), `CCN(CC)CCNc1nc(N2CCCC2)nc2ccccc12` is lower in melting point: 128 to 130 °C for the first, 87 to 90 °C for the second.

First: COc1ccc(CNc2nnc(OCCCO)c3ccc(Cl)cc23)cc1Cl
Second: COc1ccc(C(=NO)c2ccccc2F)c(Cl)c1Cl
The melting point of the first is lower: 124 to 126 °C for the first, 195 to 197 °C for the second.

Compared with `CCOC(O)C(F)(F)C(F)(F)C(F)(F)C(F)(F)C(O)OCC` (centres undefined), `COc1ccc(C(=O)Nc2ccccc2)cc1NC(=S)Nc1cc(C(F)(F)F)cc(C(F)(F)F)c1` is higher in melting point: 110 to 111 °C for the first, 192 to 193 °C for the second.

`CCCCCCc1ccc(CCCCC(COC(C)=O)(COC(C)=O)NC(C)=O)cc1` and `CCCCCCCCCCCCc1cc(CO)on1` cannot be ordered by melting point: 61 to 64 °C for the first, 61 to 63 °C for the second.

First: CC(=CCc1c(C)nc(N)nc1O)c1cc(Cl)ccc1Cl
Second: CCN(c1ccc(Cl)cc1)c1cc(NC)nc(C)n1
The melting point of the first is higher: greater than 250 °C for the first, 133 to 136 °C for the second.

First: Cc1nc2cccnc2nc1S(=O)Cc1ccccn1 (centres undefined)
Second: O=C(Nc1ccc(F)c(CBr)c1)c1ccccn1
The melting point of the first is lower: 120 to 125 °C for the first, 137 to 138 °C for the second.

First: CC(C)=CCOc1ccc(C(=O)C=Cc2cccc([N+](=O)[O-])c2)c(O)c1
Second: CC1CCN(c2ccc([N+](=O)[O-])cc2C(=O)c2ccc(Br)cc2)CC1
The melting point of the first is lower: 125 to 126 °C for the first, 142 °C for the second.

First: CCOC(=O)C1CSC(c2cc3cccc(NS(=O)(=O)c4cccs4)c3[nH]2)=N1 (centres undefined)
Second: Cc1nc(C(=O)NN)c2n1-c1ccc(Cl)cc1C(c1ccccc1)NC2 (centres undefined)
The melting point of the first is lower: 156 to 157 °C for the first, 225 to 230 °C for the second.

First: CNC(=S)Nc1ccc(C2=NNC(=O)CC2C)cc1 (centres undefined)
Second: Nc1cccc(C(=O)Nc2ccc(-c3ccc(C(=O)N4CCN5CCC4CC5)o3)cc2)c1
The melting point of the first is lower: 213 °C for the first, 249 to 252 °C for the second.

First: Cn1cccc1-c1ccc2c(c1)C(C)(C)OC(=O)N2
Second: CN1C(=O)CC[C@]2(C)c3ccc(-c4ccc5c(c4)CCC5=O)cc3CC[C@@H]12
The melting point of the first is higher: 230 °C for the first, 175 to 178 °C for the second.

Compared with `O=C1c2cccc([N+](=O)[O-])c2C(=O)N1c1cccc2ccc(O)cc12`, `CN1c2ccccc2-c2nc3ccc(Cl)cc3c3cccc1c23` is higher in melting point: 136 to 137 °C for the first, 226 to 228 °C for the second.

First: NS(=O)(=O)c1ccc(CCCCCO)s1
Second: CS(=O)(=O)CC(=O)c1ccc(Cl)cc1
The melting point of the first is lower: 65 to 67 °C for the first, 132 to 137 °C for the second.

Compared with `N#Cc1cc(CO)nc(C(=O)Nc2ccc(F)cn2)c1`, `Cc1cc2cc(C#N)c(Cl)nc2s1` is lower in melting point: 232 °C for the first, 171 to 173 °C for the second.

Compared with `CCOc1cc2ncc(C#N)c(Nc3ccc4c(c3)OCO4)c2cc1OCC`, `Cc1ccc(-c2nc(-c3nn(Cc4ccccc4F)c4ncccc34)ncc2C#N)cc1` is higher in melting point: 200 to 203 °C for the first, 229 °C for the second.

First: O=S(=O)(Cl)c1ccc2oc(Br)c(CBr)c2c1
Second: CC(=O)c1ccc(CCNS(=O)(=O)c2ccc(Br)cc2)cc1
The melting point of the first is lower: 129 to 130 °C for the first, 130 to 131 °C for the second.

Compared with `CCOC(=O)c1c2n(c3cc(Cl)c(F)cc3c1=O)C(COC1CCCCO1)CS2` (centres undefined), `CCNC(=O)c1cc2c(Cl)ccc(-n3c(=O)cc(C(F)(F)F)n(C)c3=O)c2o1` is higher in melting point: 183 to 186 °C for the first, 225 to 226 °C for the second.

Compared with `Cc1cc(C)nc(NC(=O)NS(=O)(=O)C2CC3C=CC2O3)n1` (centres undefined), `CC1(C)SC(c2cc3ccccc3o2)NC1C(=O)O` (centres undefined) is lower in melting point: 125 to 145 °C for the first, 96 °C for the second.

First: CC=Cc1c(N)nc(-c2ccc(C(F)(F)F)cc2)nc1C(=O)OC
Second: CCn1c(=O)c2[nH]c(/C=C/c3cccc(OC(F)(F)F)c3)nc2n(CC)c1=O
The melting point of the first is lower: 123 to 125 °C for the first, 266 to 267 °C for the second.

Compared with `CCOC(=O)c1ncc2[nH]c3ccc(Br)cc3c2n1`, `O=C(O)c1nc2ccc(O)cc2[nH]1` is lower in melting point: 286 to 290 °C for the first, 206 to 207 °C for the second.

First: CC(C)Cc1nn(C)c(=O)c2cc(C(O)c3cccc4ccccc34)oc12 (centres undefined)
Second: Cc1cc2c(-c3ccccc3)c(CC#N)n(C)c(=O)c2cc1C
The melting point of the first is lower: 110 to 112 °C for the first, 186 to 188 °C for the second.

First: O=C1C(=Cn2ccnc2)c2ccccc2N1c1cccc(Cl)c1
Second: O=C(CN1CCN2c3ccccc3Cn3cccc3C2C1)c1ccc(Cl)cc1 (centres undefined)
The melting point of the first is higher: 164 to 166 °C for the first, 71 to 74 °C for the second.

First: CCCC1CCC(CC(=O)N[C@@H](Cc2cc(F)cc(F)c2)[C@H](O)CNCc2cccc(CC)c2)CC1=O (some centres undefined)
Second: Cc1ccc2c(c1)c1c(n2C(=O)c2ccc(F)cc2)CCC(C(=O)O)C1 (centres undefined)
The melting point of the first is lower: 52 to 54 °C for the first, 230 to 233 °C for the second.

Compared with `CS(=O)(=O)c1ccc(/C(=C2\CCN(CCC(=O)O)C2=O)c2ccc(Cl)cc2)cc1`, `O=C(NCCSCCNC(=O)c1cccc(Cl)c1)c1cccc(Cl)c1` is lower in melting point: 178 to 179 °C for the first, 150 to 152 °C for the second.

First: CCOCc1nc2c(N)nc(C)c(C)c2n1CC1(O)CCC1
Second: CCCOC(=O)C(Cc1ccccc1)(Cn1cncn1)c1ccccc1OC (centres undefined)
The melting point of the first is higher: 190 to 191 °C for the first, 129 to 130 °C for the second.

First: COc1ccc(C=CCO)cc1OC
Second: COc1cc2c(=O)c(Cc3cccnc3)cn3c4cc(Br)ccc4c(=O)c(c1)c23
The melting point of the first is lower: 70 to 71 °C for the first, 247 to 249 °C for the second.

First: COc1ccc2c(c1)C(=O)N(CCN(C)CCN1C(=O)c3ccccc3C(C)(C)C1=O)C(=O)C2(C)C
Second: COc1cc2c(c3c1OC(C)(C)C3)C(c1ccc(=O)n(-c3cccc(-c4ccccn4)n3)c1)=NC(C)(C)C2
The melting point of the first is lower: 155 to 156 °C for the first, 231 to 234 °C for the second.

First: O=Cc1cc(-c2ccc(O)c(O)c2)c2cc(O)c(O)cc2c1O
Second: N#Cc1cc(N)nc(SCc2ccc3ccccc3c2)n1
The melting point of the first is higher: greater than 300 °C for the first, 154 to 155 °C for the second.

First: NC(=O)CN1C[C@@H]2CCC[C@@H]2C1=O (relative stereo)
Second: CN1CC2Cc3ccc(Cl)cc3C(=O)C2C1 (centres undefined)
The melting point of the first is lower: 138 to 141 °C for the first, 148 to 150 °C for the second.

From a melting point compilation (Tetko et al.; mined from patent text by program, amines drawn as free bases though some values may be those of a salt)
